Data from patent publication US9181266B2, “2-piperidin-1-yl-acetamide compounds for use as tankyrase inhibitors” (NOVARTIS AG, priority 2011, dated 2015).

Experiments:
[1] = system: Wnt ligand-induced signaling in HEK293 cells; assay: Wnt-responsive Super-TOpFlash (STF) luciferase reporter gene assay; type: cell-based; conditions: Homo sapiens, Wnt3A condition medium
Description: Cellular Reporter Gene Assay to Determine Compound Inhibition of Wnt Signaling Activity
Compound activity in inhibiting Wnt ligand-induced signaling was measured using a Wnt-responsive Super-TOpFlash (STF) luciferase reporter gene assay in HEK293 cells. On day 1 of the assay, cells were plated at a density of 8000 cells per well of 384-well plate in 25 μl medium containing 5% fetal bovine serum (FBS). On the second day, […] condition medium (CM) produced from mouse L cells was added to the cells to induce Wnt signaling, followed by addition of 5 μL of compounds each well in 10-point serial dilution. On the third day, the luciferase activity was measured by the Bright-Glo™ Luciferase Assay System following manufacture's protocol (Promega, E2620). The Inhibition was calculated as: (Maximum Wnt-induced signaling−Sample)/(Maximum Wnt-induced signaling−Background)*100. “Maximum Wnt-induced signaling” is the STF signal level induced by 20% Wnt3A CM without compound; and “Background” is the STF signal level without the addition of Wnt3A CM or compound.

[2] = system: Axin2 protein in SW480 cells; assay: Cellular ELISA assay of Axin2 protein stabilization; type: cell-based; conditions: Homo sapiens, 24 hrs, read-out: Axin AC50
Description: Cellular ELISA Assay to Determine Compound Effect on Stabilizing the Axin2 Protein Compound activity in stabilizing the Axin2 protein was measured by Sandwich Enzyme-Linked Immuosorbent (ELISA) assay in the colorectal cell line SW480. 30,000 SW480 cells were seeded per well in 96-well plate and incubated overnight prior to compound treatment. […] Cells were then washed with 100 μL of cold Phosphate Buffer Saline (PBS), and lysed in 125 μl of cold 1× lysis buffer (Cell Signaling Technology, 9803) supplemented with Protease inhibitor (Roche, 11836170) and Phosphatase inhibitors (Sigma, P2850, P5726). For the ELISA assay, anti Axin-2 capture antibody (Strategic Diagnostics) antibody was diluted to a concentration of 1 μg/ml (1:1000) in Carbonate Coating buffer, pH 9.2 (Sigma, C3041-50CAP). […], of the diluted anti Axin-2 capture antibody per well was then used to coat the 96-well ELISA plate (Thermo Electron Corp., MicroLite 1 flat bottom plate #7571) overnight at 4° C. […] After blocking, plates were then washed three times with 300 μl/well of wash solution. 100 μL of prepared SW480 cell lysate was then added to each well and incubated at room temperature for 2 hours while shaking gently. After washing, 100 μL of Biotinylated anti-Axin2 antibody (CST, 2151) was added to each well and incubated room temperature for 2 hours. 100 μL of Streptavidin-HRP (R&D systems, DY998) diluted 1:200 in 1% BSA/PBS was then added in each well and incubate for 30 mins at R/T in the dark.

[3] = system: Non-small lung cancer ABC-1 cells; assay: Cellular proliferation assay (CellTiter-Glo); type: cell-based; conditions: Homo sapiens, 72 h; ABC-1 cells, 3 days of compound treatment; read-out: ABC-1 IC50
Description: Cellular Proliferation Assay to Determine Compound Inhibition of Cancer Cell Growth
Viable cells were measured after 3 days of compound treatment using the CellTiter-Glo assay (Promega, G7570). Assay was performed following the manufacture protocol.

[4] = molecular target: human tankyrase 1 PARP catalytic domain, TNKS1P (Homo sapiens (Human), UniProt O95271); assay: TNKS1 autoparsylation assay (LC/MS detection of nicotinamide); conditions: read-out: TNKS1 AP IC50, 20 nM enzyme, 250 μM β-NAD+, 60 min
Description: Biochemical Assay to Determine Compound Inhibition of TNKS Enzyme Activity
The autoparsylation activity of the TNKS 1/2 or PARP1/2 enzymes was measured by the liquid chromatography-mass spectrometry (LC/MS) detection of nicotinamide as readout. Compound activity in inhibiting the TNKS and PARP autoparsylation was evaluated by IC50 measurements. […] For the background control wells, 10 μL of the 5× quenching solution per well was added prior to the addition of β-NAD^+. The % Inhibition was calculated as: (Control−Sample)/(Control−Background)*100.

[5] = molecular target: tankyrase 2 protein PARP domain, TNKS2P (Homo sapiens (Human), UniProt Q9H2K2); assay: TNKS2 autoparsylation assay (LC/MS detection of nicotinamide); conditions: read-out: TNKS2 AP IC50, 20 nM enzyme, 250 μM β-NAD+, 60 min
tankyrase 2 protein PARP domain, TNKS2P, sequence (Q9H2K2 959-1164): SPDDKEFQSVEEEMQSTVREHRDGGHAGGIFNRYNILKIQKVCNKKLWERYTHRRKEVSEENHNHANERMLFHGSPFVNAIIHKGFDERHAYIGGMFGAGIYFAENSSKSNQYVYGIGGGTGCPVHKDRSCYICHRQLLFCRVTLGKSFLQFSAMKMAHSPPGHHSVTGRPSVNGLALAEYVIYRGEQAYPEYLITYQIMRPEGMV

human tankyrase 1 PARP catalytic domain, TNKS1P, sequence (O95271 1112-1317): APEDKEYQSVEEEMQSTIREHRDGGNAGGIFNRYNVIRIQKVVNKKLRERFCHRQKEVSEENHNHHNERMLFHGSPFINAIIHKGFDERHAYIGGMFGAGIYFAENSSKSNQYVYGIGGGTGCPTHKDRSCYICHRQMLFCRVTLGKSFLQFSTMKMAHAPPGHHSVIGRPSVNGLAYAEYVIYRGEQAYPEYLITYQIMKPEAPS

Compound	IC50 [3] [nM]	IC50 [4] [nM]	IC50 [5] [nM]	IC50 [1] [nM]	AC50 [2] [nM]
COc1ccc(C(=O)C2CCN(CC(=O)NCc3nc4c(c(=O)[nH]3)CCCCC4)CC2)cc1 [Example 6, 2-(4-(4-Methoxybenzoyl)piperidin-1-yl)-N-((4-oxo-4,5,6,7,8,9-hexahydro-3H-cyclohepta[d]pyrimidin-2-yl)methyl)acetamide]	484	575 ± 25	353 ± 8	56 ± 7	293 ± 8
O=C(c1ccc(F)cc1)C1CCN(CC(=O)N(Cc2ccccc2)Cc2nc3c(c(=O)[nH]2)COCC3)CC1 [Example 38, N-Benzyl-2-(4-(4-fluorobenzoyl)piperidin-1-yl)-N-((4-oxo-4,5,7,8-tetrahydro-3H-pyrano[4,3-d]pyrimidin-2-yl)methyl)acetamide]	833	82 ± 1	–	–	372 ± 86
O=C(CN1CCC(c2nnc(-c3ccccc3)o2)CC1)NCc1nc2c(c(=O)[nH]1)COCC2 [Example 52, N-(4-Oxo-3,5,7,8-tetrahydro-4H-pyrano[4,3-d]pyrimidin-2-ylmethyl)-2-[4-(5-phenyl-[1,3,4]oxadiazol-2-yl)-piperidin-1-yl]-acetamide]	2800	1190 ± 150	170 ± 30	155 ± 8	1090 ± 170
COCCN(Cc1nc2c(c(=O)[nH]1)COCC2)C(=O)CN1CCC(c2nnc(-c3ccccc3)o2)CC1 [Example 53]	2160	1130 ± 270	142 ± 19	430 ± 50	2100 ± 200
O=C(CN1CCC(c2nnc(-c3ccc(F)cc3)o2)CC1)NCc1nc2c(c(=O)[nH]1)COCC2 [Example 55, 2-{4-[5-(4-Fluoro-phenyl)-[1,3,4]oxadiazol-2-yl]piperidin-1-yl}-N-(4-oxo-3,5,7,8-tetrahydro-4H-pyrano[4,3-d]pyrimidin-2-ylmethyl)-acetamide]	83	487 ± 16	78 ± 4	4.7 ± 1.8	25 ± 5
O=C(c1ccccc1)C1CCN(CC(=O)N(Cc2nc3c(c(=O)[nH]2)COCC3)CC(F)F)CC1 [Example 68, 2-(4-Benzoyl-piperidin-1-yl)-N-(2,2-difluoro-ethyl)-N-(4-oxo-3,5,7,8-tetrahydro-4H-pyrano[4,3-d]pyrimidin-2-ylmethyl)-acetamide]	75	31 ± 1	5 ± 1	5.2 ± 0.8	41 ± 7
O=C(c1ccc(Cl)cc1)C1CCN(CC(=O)N(Cc2nc3c(c(=O)[nH]2)COCC3)CC(F)F)CC1 [Example 69, 2-[4-(4-Chloro-benzoyl)-piperidin-1-yl]-N-(2,2-difluoro-ethyl)-N-(4-oxo-3,5,7,8-tetrahydro-4H-pyrano[4,3-c]pyrimidin-2-ylmethyl)-acetamide]	709	35 ± 4	18 ± 1	20 ± 9	930 ± 450
COc1ccccc1C(=O)C1CCN(CC(=O)N(Cc2nc3c(c(=O)[nH]2)COCC3)CC(F)F)CC1 [Example 72, N-(2,2-Difluoro-ethyl)-2-[4-(2-methoxy-benzoyl)-piperidin-1-yl]-N-(4-oxo-3,5,7,8-tetrahydro-4H-pyrano[4,3-d]pyrimidin-2-ylmethyl)-acetamide]	96	420 ± 110	85 ± 20	8.7 ± 0.3	52 ± 28
O=C(c1cccc(OC(F)(F)F)c1)C1CCN(CC(=O)N(Cc2nc3c(c(=O)[nH]2)COCC3)CC(F)F)CC1 [Example 74, N-(2,2-Difluoro-ethyl)-N-(4-oxo-3,5,7,8-tetrahydro-4H-pyrano[4,3-d]pyrimidin-2-ylmethyl)-2-[4-(3-trifluoromethoxy-benzoyl)-piperidin-1-yl]-acetamide]	590	155 ± 15	38 ± 4	35.1 ± 3.4	508 ± 50
O=C(CN1CCC(C(=O)N2CCc3ccccc3C2)CC1)NCc1nc2c(c(=O)[nH]1)COCC2 [Example 79, N-((4-Oxo-4,5,7,8-tetrahydro-3H-pyrano[4,3-d]pyrimidin-2-yl)methyl)-2-(4-(1,2,3,4-tetrahydroisoquinoline-2-carbonyl)piperidin-1-yl)acetamide]	26	3020 ± 49	815 ± 28	6.5 ± 2.7	27 ± 3
COc1ccc(C(=O)C2CCN(CC(=O)NCc3nc4c(c(=O)[nH]3)COCC4)CC2)cc1OC [Example 90, 2-[4-(3,4-Dimethoxy-benzoyl)-piperidin-1-yl]-N-(4-oxo-3,5,7,8-tetrahydro-4H-pyrano[4,3-c]pyrimidin-2-ylmethyl)-acetamide]	38	42 ± 2	18	10.3 ± 0.8	20 ± 5

Now from value to compound, other results behind:

IC50 [3] [nM]	IC50 [4] [nM]	IC50 [5] [nM]	Compound	IC50 [1] [nM]	AC50 [2] [nM]
691	714 ± 5	371 ± 3	COc1ccc(C(=O)C2CCN(CC(=O)N(Cc3nc4c(c(=O)[nH]3)CCCCC4)CC3CC3)CC2)cc1 [Example 7, N-(Cyclopropylmethyl)-2-(4-(4-methoxybenzoyl)piperidin-1-yl)-N-((4-oxo-4,5,6,7,8,9-hexahydro-3H-cyclohepta[d]pyrimidin-2-yl)methyl)acetamide]	180 ± 70	680 ± 90
470	17 ± 1	4 ± 1	O=C(CN1CCC2(CC1)Cc1cc(F)ccc1C2=O)N(Cc1nc2c(c(=O)[nH]1)COCC2)CC1CC1 [Example 62, N-(Cyclopropylmethyl)-2-(5-fluoro-1-oxo-1,3-dihydrospiro[indene-2,4′-piperidine]-1′-yl)-N-((4-oxo-4,5,7,8-tetrahydro-3H-pyrano[4,3-d]pyrimidin-2-yl)methyl)acetamide]	115 ± 17	560 ± 150
158	10 ± 1.4	1 ± 1.4	COc1ccc2c(c1)CC1(CCN(CC(=O)N(Cc3nc4c(c(=O)[nH]3)COCC4)CC3CC3)CC1)C2=O [Example 63, N-(Cyclopropylmethyl)-2-(5-methoxy-1-oxo-1,3-dihydrospiro[indene-2,4′-piperidine]-1′-yl)-N-((4-oxo-4,5,7,8-tetrahydro-3H-pyrano[4,3-d]pyrimidin-2-yl)methyl)acetamide]	11.9 ± 3.1	137 ± 31
12	10 ± 1.4	2.5 ± 0.7	COc1ccc2c(c1)CC1(CCN(CC(=O)N(Cc3nc4c(c(=O)[nH]3)COCC4)CC(F)F)CC1)C2=O [Example 64, N-(2,2-Difluoro-ethyl)-2-(5-methoxy-1-oxo-1,3-dihydrospiro[indene-2,4′-piperidine]-1′-yl)-N-((4-oxo-4,5,7,8-tetrahydro-3H-pyrano[4,3-d]pyrimidin-2-yl)methyl)acetamide]	1.2 ± 0.5	9 ± 3
26	3100 ± 400	760 ± 15	O=C(CN1CCC2(CCc3ccccc3C2=O)CC1)NCc1nc2c(c(=O)[nH]1)COCC2 [Example 65, 2-(1-oxo-3,4-dihydro-1H-spiro[naphthalene-2,4′-piperidine]-1′-yl)-N-((4-oxo-4,5,7,8-tetrahydro-3H-pyrano[4,3-d]pyrimidin-2-yl)methyl)acetamide]	0.7 ± 0.2	12 ± 3
236	105 ± 1	32 ± 1	O=C(c1ccccn1)C1CCN(CC(=O)N(Cc2nc3c(c(=O)[nH]2)COCC3)CC2CC2)CC1 [Example 76, N-Cyclopropylmethyl-N-(4-oxo-3,5,7,8-tetrahydro-4H-pyrano[4,3-d]pyrimidin-2-ylmethyl)-2-[4-(pyridine-2-carbonyl)-piperidin-1-yl]-acetamide]	32 ± 10	176 ± 14
2710	1170 ± 50	764 ± 51	O=C(c1ccc(OCc2ccccc2)cc1)C1CCN(CC(=O)N(Cc2nc3c(c(=O)[nH]2)COCC3)CC2CC2)CC1 [Example 77]	55 ± 8	4480 ± 90
